Measurements as given in PMC9467556, “Identification of novel pyrrolopyrimidine and pyrrolopyridine derivatives as potent ENPP1 inhibitors” (Journal of Enzyme Inhibition and Medicinal Chemistry, 2022).
Where a name gives a salt, the structure may show the parent alone.

Tests used:
[1] = tested on: IFN-β secretion in THP-1 cells; test: IFN-β cytokine release by ELISA; details: co-treatment with cGAMP, 8 h
Protocol: (§4) Extracellular secretion of IFN-β and IP-10 was measured by enzyme-linked immunosorbent assay (ELISA).
(§5) THP-1 cells were seeded in 96 well plate and treated with the compounds for 8 h incubation. 100 μL of cell culture supernatant was harvested and analysed using manufactural protocols.

[2] = liver microsomal stability; assay type: in vitro ADME, mouse; details: % remaining during 30 min at 1 µM
[3] = tested on: phosphorylation of IRF3 in THP-1 cells; test: western blot of STING downstream signalling; assay type: cell-based, human; details: cGAMP (1 μg/mL) then 18p, 6 h
Protocol: (§1) To evaluate whether 18p induced desired immune response via activation of STING pathway, we investigated the activation of downstream effector proteins, IRF3 and STAT1 that were known as major regulatory proteins of STING and IFN-β, respectively.
(§2) Figure 6. Western blot analysis for STING downstream signalling pathway. THP-1 cells were treated with cGAMP (1 μg/mL) first, and then treated with either DMSO or 18p at indicated concentration for 6 h. Tubulin was used as a loading control.
(§3) Cells were washed by PBS and harvested with RIPA buffer (Bioseasang). After centrifugation with 20,000 × g for 20 min at 4 °C. Cell lysates were separated by SDS-polyacrylamide gel electrophoresis and transferred on PVDF membranes through the Trans-Blot Turbo Transfer System (Bio-Rad). The membranes were blocked in 5% BSA in TBST for 1 h at room temperature and followed by incubation with primary antibody solution for overnight. […] After washing with TBST, all antibodies were detected by anti-rabbit-HRP-linked secondary antibody (Cell signalling/no. 7074, 1:3000). β-Tubulin was used as a loading control for the amount of total protein. Luminescence signal was detected using ECL reagent and immunoreactive bands were captured with the ChemiDoc imaging systems (Bio-Rad).

[4] = tested on: phosphorylation of STAT1 in THP-1 cells; test: western blot of STING downstream signalling; assay type: cell-based, human; details: cGAMP (1 μg/mL) then 18p, 6 h
Protocol: as §1, §2, §3

[5] = tested on: interferon stimulated genes (ISG) CXCL10, OAS1, IFITM1 in THP-1 cells; test: real-time PCR of interferon stimulated genes; assay type: cell-based, human; details: co-treatment with cGAMP, 4 h, normalized by GAPDH
Protocol: Next, we further explored type I IFN response induced by activation of STING signalling. The gene expression for various interferon stimulated genes (ISGs) such as CXCL10, OAS1, and IFITM1 was analysed by real-time PCR.
Figure 5. Real-time PCR analysis for gene expression of various interferon stimulated genes (ISG), CXCL10, OAS1, and IFITM1. THP-1 cells were stimulated by indicated concentration of 18p for 4 h. The relative gene expression level was normalized by GAPDH as an internal standard. Graphs depict mean and RQ max values.
Cells were harvest and RNA were isolated using NucleoSpin RNA plus (MN) according to the manufacturer’s instructions. Genomic DNA was removed and cDNA was synthesised using an iScript gDNA clear cDNA synthesis kit (Bio-Rad). Expression levels were assessed by real-time PCR (CFX96 Real-Time PCR detection system, Bio-rad) using IQ SYBR green Supermix (Bio-Rad). The mRNA levels were normalized by GAPDH and calculated by comparative Ct method.

[6] = pharmacokinetics in BALB/c mice; assay type: in vivo
CYP1A2 = molecular target: T1, CYP1A2 (Homo sapiens, UniProt P05177); test: CYP inhibition profile; assay type: in vitro ADME; details: compound 10 μM
T1 sequence (P05177 1-516): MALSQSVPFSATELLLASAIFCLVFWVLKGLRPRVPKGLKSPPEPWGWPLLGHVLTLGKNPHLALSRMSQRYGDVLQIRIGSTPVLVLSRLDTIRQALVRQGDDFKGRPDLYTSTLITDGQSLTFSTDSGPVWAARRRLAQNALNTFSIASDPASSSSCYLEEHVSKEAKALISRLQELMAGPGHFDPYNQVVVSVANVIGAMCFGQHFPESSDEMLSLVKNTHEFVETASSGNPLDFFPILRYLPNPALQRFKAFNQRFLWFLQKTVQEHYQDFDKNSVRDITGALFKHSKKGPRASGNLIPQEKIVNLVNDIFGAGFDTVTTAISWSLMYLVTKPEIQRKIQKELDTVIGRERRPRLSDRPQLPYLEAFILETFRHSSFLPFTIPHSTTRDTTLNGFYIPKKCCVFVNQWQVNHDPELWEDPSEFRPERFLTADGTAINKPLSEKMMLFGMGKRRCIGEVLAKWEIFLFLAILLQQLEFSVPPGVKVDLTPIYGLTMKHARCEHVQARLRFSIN
Source text: Table 3. CYP inhibition profile. | column: % inhibition / CYP1A2

[7] = tested on: ISRE-mediated reporter gene induction in THP-1 cells; test: ISRE/IRF luciferase reporter assay in THP-1 dual cells with cGAMP; details: co-treatment with cGAMP (1 μg/mL), 24 h
CYP3A4 = CYP3A4 (Homo sapiens, UniProt P08684); test: CYP inhibition profile; assay type: in vitro ADME; details: compound 10 μM
Chain of CYP3A4 (P08684 whole entry): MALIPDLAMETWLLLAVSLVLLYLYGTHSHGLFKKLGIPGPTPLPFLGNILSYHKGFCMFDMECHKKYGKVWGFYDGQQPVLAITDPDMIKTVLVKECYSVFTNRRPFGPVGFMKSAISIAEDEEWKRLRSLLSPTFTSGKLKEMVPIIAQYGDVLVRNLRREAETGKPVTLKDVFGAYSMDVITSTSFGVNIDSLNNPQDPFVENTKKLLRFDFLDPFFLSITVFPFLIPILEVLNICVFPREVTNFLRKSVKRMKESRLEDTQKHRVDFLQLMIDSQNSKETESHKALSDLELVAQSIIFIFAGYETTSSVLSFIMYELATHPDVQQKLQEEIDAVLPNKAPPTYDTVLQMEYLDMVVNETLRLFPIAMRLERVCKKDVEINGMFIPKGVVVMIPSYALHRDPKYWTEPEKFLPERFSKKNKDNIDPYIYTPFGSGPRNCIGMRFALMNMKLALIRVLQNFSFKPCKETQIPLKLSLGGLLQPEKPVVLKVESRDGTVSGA
Source text: Table 3. CYP inhibition profile. | column: % inhibition / CYP3A4

[8] = tested on: IP-10 secretion in THP-1 cells; test: IP-10 cytokine secretion by ELISA; details: co-treatment with cGAMP, 8 h
Protocol: as §4, §5

THP-1 cells = test: cell viability assay (MTS); assay type: cell-based, human; details: all concentrations tested
Protocol: Cell viability assay was performed using residual cells after luciferase assay. Cells were analysed using CellTiter 96 Aqueous One Solution Proliferation Assay (MTS, Promega) according to the manufactural protocols. Absorbance signal were measured using microplate reader (TECAN). Results were normalized using DMSO as a control.

[9] = liver microsomal stability; assay type: in vitro ADME, rat; details: % remaining during 30 min at 1 µM
CYP2D6 = CYP2D6 (Homo sapiens, UniProt P10635); test: CYP inhibition profile; assay type: in vitro ADME; details: compound 10 μM
Chain of CYP2D6 (P10635 whole entry): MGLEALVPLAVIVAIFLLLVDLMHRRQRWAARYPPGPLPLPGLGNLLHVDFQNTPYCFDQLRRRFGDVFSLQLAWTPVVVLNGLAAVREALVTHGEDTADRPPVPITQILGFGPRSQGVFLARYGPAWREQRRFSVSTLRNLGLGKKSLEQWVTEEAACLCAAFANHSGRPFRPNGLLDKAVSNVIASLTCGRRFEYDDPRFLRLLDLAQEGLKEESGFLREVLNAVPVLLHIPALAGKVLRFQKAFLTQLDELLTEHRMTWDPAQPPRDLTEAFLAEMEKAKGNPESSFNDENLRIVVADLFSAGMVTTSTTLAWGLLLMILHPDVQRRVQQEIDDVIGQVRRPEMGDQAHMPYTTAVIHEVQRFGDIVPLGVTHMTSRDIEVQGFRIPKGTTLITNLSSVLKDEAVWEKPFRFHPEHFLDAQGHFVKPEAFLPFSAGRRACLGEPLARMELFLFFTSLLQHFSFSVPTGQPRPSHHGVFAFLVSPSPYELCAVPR
Source text: Table 3. CYP inhibition profile. | column: % inhibition / CYP2D6

CC1(CNS(N)(=O)=O)CCN(c2ncnc3[nH]ccc23)CC1 [18p, N-((4-Methyl-1-(7H-pyrrolo[2,3-d]pyrimidin-4-yl)piperidin-4-yl)methyl)methanesulfamide hydrochloride]
IFN-β cytokine release [1]: secreted more cytokine than with cGAMP alone
Microsomal stability (%) Mouse [2]: 83%
phosphorylation of IRF3 [3]: increased phosphorylation of IRF3 and STAT1 was observed in dose-dependent manner
phosphorylation of STAT1 [4]: increased phosphorylation of IRF3 and STAT1 was observed in dose-dependent manner
gene expression of interferon stimulated genes (CXCL10, OAS1, IFITM1) [5]: induced expression of all ISG genes we tested
CI ([6]; IV, 1 mg/kg): 125 mL/min/kg
AUC ([6]; mouse, plasma, IV, 1 mg/kg): 126 ng·h/mL
AUC(0-t) ([6]; mouse, plasma, IV, 1 mg/kg): 125 ng·h/mL
Cmax ([6]; mouse, plasma, IV, 1 mg/kg): 303 ng/mL
Tmax ([6]; mouse, plasma, IV, 1 mg/kg): 4.98 min
half-life ([6]; mouse, plasma, IV, 1 mg/kg): 15 min
Vd ([6]; mouse, plasma, IV, 1 mg/kg, read-out: Vss): 2.3 L/kg
bioavailability ([6]; mouse, plasma, PO 10 mg/kg vs IV 1 mg/kg): > 100%
AUC ([6]; mouse, plasma, PO, 10 mg/kg): 1700 ng·h/mL
AUC(0-t) ([6]; mouse, plasma, PO, 10 mg/kg): 1690 ng·h/mL
Cmax ([6]; mouse, plasma, PO, 10 mg/kg): 1550 ng/mL
Tmax ([6]; mouse, plasma, PO, 10 mg/kg): 30 min
half-life ([6]; mouse, plasma, PO, 10 mg/kg): 93.6 min
% inhibition CYP1A2 (CYP1A2): 12.0%
cGAMP-induced ISRE activation (luciferase signal) [7]: clearly increased the cGAMP-induced ISRE activation in dose-dependent manner
% inhibition CYP3A4 (CYP3A4): 8.9%
IP-10 cytokine secretion [8]: secreted more cytokine than with cGAMP alone
cell viability / toxicity (THP-1 cells): no obvious toxicity
Microsomal stability (%) Rat [9]: 96%
% inhibition CYP2D6 (CYP2D6): 0.5%
